The subject of this assay is 485176-168-R4-J1-PDC complex spheroid growth. The experiment in a line: Anticancer human tumor 485176-168-R4-J1-PDC patient-derived pancreatic adenocarcinoma cell line growth inhibition [RAS]. The conditions noted are these: for viability, T/C: stronger effect = lower value. The source says:
RAS pathway inhibitors in Combinations in Complex Spheroids
A high-throughput screen of multi-cell type tumor spheroids was designed to identify active combinations of RAS pathway inhibitors and targeted small molecules. Complex spheroids include a stromal component modeled by human endothelial cells (HUVEC) and fibroblasts modeled by human mesenchymal stem cells (MSCs). The concentration ranges selected for each drug and investigational agent were based upon clinically achievable concentrations if the clinical Cmax of the agent was known.
Compounds. The drugs and investigational agents: abemaciclib (NSC768073), cobimetinib (NSC768068), divarasib (GDC6063, NSC841802), docetaxel (NSC628503), GDC-1971 (RLY-1971, NSC841576), gemcitabine (NSC613327), inavolisib (NSC800729), ipatasertib (NSC767898), KB-0742 (NSC834161), MRTX-1133 (NSC836407), osimertinib (NSC779217), RMC-4630 (NSC839698), RMC-6236 (NSC851965), RMC-6291 (NSC852671), Ro-3306 (NSC812927), sapanisertib (NSC764658), SN-38 (NSC673596), staurosporine (NSC755774), SY5609 (NSC837396), and tovorafenib (DAY101, NSC766906), were obtained from the National Cancer Institute (NCI) Developmental Therapeutics Program Chemical Repository. The FDA-approved anticancer drug set is available from the NCI Developmental Therapeutics Program. […] The stock solutions were prepared in dimethyl sulfoxide (DMSO, Sigma-Aldrich, St. Louis, MO, cat. D2650) at 800-fold the tested concentration and stored at -70 degrees C prior to their use. All drugs and investigational agents were tested over a range starting from a high concentration at or near the clinical Cmax and decreasing in half-log increments. If the clinical Cmax for an agent had not been determined, the highest concentration tested was 10 microM.
Cell Culture. All cells were maintained in an incubator at 37 degrees C and 5% CO2 with 95% humidity. The PDC lines were cultured according to standard operating procedures established by the NCI PDMR. All PDCs were thawed and cultured in Matrigel-coated flasks prepared with a working solution of 1X Ham's F-12 nutrient mix, without supplementation (Invitrogen, Waltham, MA, cat. 11765054), 100 U/mL penicillin-streptomycin (Invitrogen, cat. 15140122), and 2.5% Matrigel (Corning Inc., Corning, NY, cat. 354248) for the first three passages. The 362531-283-R-J2-PDC and 782815-120-R-J1-PDC lines were cultured in 6C/Colon 1B media, which includes advanced DMEM/F-12 (Thermo Fisher Scientific, cat. 12634028), 10 mM HEPES (Thermo Fisher Scientific, cat. 15630080), 1X GlutaMAX supplement (Thermo Fisher Scientific, cat. 35050061), 0.1 mg/mL primocin (InvivoGen, San Diego, CA, cat. ant-pm-2), 10% defined fetal bovine serum, heat inactivated (HyClone Laboratories Inc., Logan, UT, cat. SH30070.03HI), 50% L-WRN conditioned media (ATCC, cat. CRL-3276), 1.25 mM N-Acetyl-L-cysteine (Sigma-Aldrich, cat. A9165), 10 mM nicotinamide (Sigma-Aldrich, cat. N0636), 1X B-27 supplement (Thermo Fisher Scientific, cat. 17504044), 1X N-2 supplement (Thermo Fisher Scientific, cat. 17502048), 50 ng/mL human EGF (Thermo Fisher Scientific, cat. PHG0311), and 10 microM Y-27632 dihydrochloride (Tocris Bioscience, cat. 1254). The K12877-001-R-J1-PDC line was cultured in 6I media, which includes all 6C/Colon 1B media plus 10 ng/mL human FGF-10 (PeproTech, cat. 100-26), 1 ng/mL human FGF-2 (PeproTech, cat. 100-18B), 1 µM prostaglandin E2 (Tocris Bioscience, cat. 2296), […] hydrocortisone (Sigma-Aldrich, cat. H4001), and […] bovine insulin (Sigma-Aldrich, cat. I6634). The K86415-001-R-J1-PDC line was cultured in 6D media, which includes all 6C/Colon 1B media components minus the L-WRN conditioned media. The 485176-168-R4-J1-PDC was cultured in PANC media, which includes all 6C/Colon 1B media plus 100 ng/mL human FGF-10 (PeproTech, cat. 100-26), 500 nM SB-431542 (Selleckchem, cat. S1067), and 10 nM gastrin (Tocris Bioscience, cat. 3006). […]

Where [1] appears, read: compound alone, run of 05/20/2024.

For 14 molecules, viability, T/C and IC50 results are on record in PubChem BioAssay AID2060906 (Molecular Pharmacology Branch, DTP, NCI, 2025).

“And” between values parts separate entries of the source, which are not always exact repeats. Identical values can stand only once.
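Note: spheroids exposed to compounds for seven days before readout.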
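Throughout, for viability, T/C: luminescence viability expressed relative to DMSO vehicle wells set as 100%.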

One may read the viability, T/C as the ratio of treated to control. Broadly, the IC50 is the point on the concentration scale where inhibition reaches its midpoint. Regarding `C=CC(=O)Nc1cc(Nc2nccc(-c3cn(C)c4ccccc34)n2)c(OC)cc1N(C)CCN(C)C`, the viability, T/C was 96.8% [middle of 4 runs] (compound 0.00316 µM); 97.1% [middle of 4 runs] (compound 0.01 µM); 96.3% [middle of 4 runs] (compound 0.0316 µM); 93.2% [middle of 4 runs] (compound 0.316 µM); 64.5% [middle of 4 runs] (compound 1 µM). The IC50 (curve of compound) is above 1 µM.

For `CC(C)NCC(C(=O)N1CCN(c2ncnc3c2C(C)CC3O)CC1)c1ccc(Cl)cc1` (centres undefined), the viability, T/C (compound 0.0316 µM) was 96.6% [middle of 4 runs]; the viability, T/C (compound 0.1 µM) was 93.9% [middle of 4 runs]; the viability, T/C (compound 0.316 µM) is 80.4% [middle of 4 runs]; the viability, T/C (compound 1 µM) is 58.8% [middle of 4 runs]; the viability, T/C (compound 3.16 µM) is 47.7% [middle of 4 runs]; the viability, T/C (compound 10 µM) was 35% [middle of 4 runs]. Besides, the IC50 (curve of compound) is 2.32 µM [middle of 4 runs].

In the case of `CC(C)n1nc(-c2ccc3oc(N)nc3c2)c2c(N)ncnc21`, the viability, T/C (compound 0.000316 µM) is 104% [middle of 4 runs]; the viability, T/C (compound 0.001 µM) is 77.8% [middle of 4 runs]; the viability, T/C (compound 0.00316 µM) was 84.1% [middle of 4 runs]; the viability, T/C (compound 0.01 µM) was 77.2% [middle of 4 runs]; the viability, T/C (compound 0.0316 µM) is 49.2% [middle of 4 runs]; the viability, T/C (compound 0.1 µM) was 22.3% [middle of 4 runs]. In addition, the IC50 (curve of compound) is 31.2 nM [middle of 4 runs].

As for `CC(Nc1ccc2c(c1)OCCn1cc(N3C(=O)OCC3C(F)F)nc1-2)C(N)=O` (centres undefined), the viability, T/C (compound 0.0316 µM) was 97.9% [middle of 4 runs]; the viability, T/C (compound 0.1 µM) is 89.2% [middle of 4 runs]; the viability, T/C (compound 0.316 µM) is 84.7% [middle of 4 runs]; the viability, T/C (compound 1 µM) was 75.3% [middle of 4 runs]; the viability, T/C (compound 3.16 µM) is 69.1% [middle of 4 runs]; the viability, T/C (compound 10 µM) was 55.5% [middle of 4 runs]. The IC50 (curve of compound) was above 10 µM.

`CC1(C)CCC(Nc2ncc(C(F)(F)F)c(-c3c[nH]c4c(P(C)(C)=O)c(C#N)ccc34)n2)CN1` (centres undefined): the viability, T/C is 110% (2×) and 103% and 111% (compound 0.000949 µM); 90.3% [middle of 4 runs] (compound 0.003 µM); 77.3% [middle of 4 runs] (compound 0.00949 µM); 62.6% [middle of 4 runs] (compound 0.03 µM); 50.2% [middle of 4 runs] (compound 0.0949 µM); 49.1% [middle of 4 runs] (compound 0.3 µM).

Consider `CC1(O)CCCC1n1c(=O)c(C(F)F)cc2cnc(NC3CCN(S(C)(=O)=O)CC3)nc21` (centres undefined), for which the viability, T/C is, setting by setting: (compound 0.0316 µM) 102% [middle of 4 runs]; (compound 0.1 µM) 77.6% [middle of 4 runs]; (compound 0.316 µM) 70.4% [middle of 4 runs]; (compound 1 µM) 72.5% [middle of 4 runs]; (compound 3.16 µM) 57.5% [middle of 4 runs]; (compound 10 µM) 2.58% [middle of 4 runs]. For the same molecule, where the note is “curve of compound”, the IC50 is 2.72 µM [middle of 4 runs].

Take `CCC(CC)c1cc(NC2CCC(N)C2)n2nccc2n1` (centres undefined): the viability, T/C is 105% [middle of 4 runs] (compound 0.0316 µM); 93.7% [middle of 4 runs] (compound 0.1 µM); 98.9% [middle of 4 runs] (compound 0.316 µM); 80.6% [middle of 4 runs] (compound 1 µM); 3.56% [middle of 4 runs] (compound 3.16 µM); 0.72% [middle of 4 runs] (compound 10 µM). Further, the IC50 (curve of compound) is 1.58 µM [middle of 4 runs].

Take `CCN1CCN(Cc2ccc(Nc3ncc(F)c(-c4cc(F)c5nc(C)n(C(C)C)c5c4)n3)nc2)CC1`: the viability, T/C (compound 0.00316 µM) was 92.9% [middle of 4 runs]; the viability, T/C (compound 0.01 µM) was 88.4% [middle of 4 runs]; the viability, T/C (compound 0.0316 µM) was 100% [middle of 4 runs]; the viability, T/C (compound 0.316 µM) was 75.5% [middle of 4 runs]; the viability, T/C (compound 1 µM) was 67.7% [middle of 4 runs]. Further, the IC50 (curve of compound) is above 1 µM.

In the case of `CCc1c2c(nc3ccc(O)cc13)-c1cc3c(c(=O)n1C2)COC(=O)[C@]3(O)CC`, the viability, T/C (compound 0.003 µM) was 86.2% [middle of 4 runs]; the viability, T/C (compound 0.00949 µM) was 66% [middle of 4 runs]; the viability, T/C (compound 0.03 µM) is 36.5% [middle of 4 runs]; the viability, T/C (compound 0.0949 µM) was 14% [middle of 4 runs]; the viability, T/C (compound 0.3 µM) was 7.88% [middle of 4 runs]. In addition, where the note is “curve of compound”, the IC50 was 17.9 nM [middle of 4 runs].

For `CCn1c(-c2cc(N3CCN(C)CC3)cnc2C(C)OC)c2c3cc(ccc31)-c1csc(n1)CC(NC(=O)C1CC1C)C(=O)N1CCCC(N1)C(=O)OCC(C)(C)C2` (centres undefined), the viability, T/C is 102% [middle of 8 runs] (compound 0.000949 µM), 102% [middle of 8 runs] (compound 0.003 µM) and 92.2% [middle of 8 runs] (compound 0.00949 µM). The IC50 under setting [1] is above 0.3 µM.

As to `CCn1c(-c2cccnc2C(C)OC)c2c3cc(ccc31)N1CCOC(CC(NC(=O)C(C(C)C)N(C)C(=O)C3(F)CCN(C(=O)C#CC(C)(C)N(C)C)CC3)C(=O)N3CCCC(N3)C(=O)OCC(C)(C)C2)C1` (centres undefined), the viability, T/C reads like this: (compound 0.003 µM) 104% [middle of 8 runs]; (compound 0.00949 µM) 107% [middle of 8 runs]; (compound 0.03 µM) 93.8% [middle of 8 runs]; (compound 0.0949 µM) 93% [middle of 8 runs]; (compound 0.3 µM) 81.7% [middle of 8 runs]. The IC50 under setting [1] is above 0.3 µM.

Turning to `C[C@@H](NC(=O)c1ncnc(N)c1Cl)c1ncc(C(=O)Nc2cc(C(F)(F)F)c(Cl)cn2)s1`, the viability, T/C is, setting by setting: (compound 0.0316 µM) 105% [middle of 4 runs]; (compound 0.1 µM) 96% [middle of 4 runs]; (compound 0.316 µM) 88.5% [middle of 4 runs]; (compound 1 µM) 79.2% [middle of 4 runs]; (compound 3.16 µM) 79.1% [middle of 4 runs]; (compound 10 µM) 60.9% [middle of 4 runs]. Further, the IC50 (curve of compound) is above 10 µM.

`Nc1ccn(C2OC(CO)C(O)C2(F)F)c(=O)n1` (centres undefined): the viability, T/C by setting is: (compound 0.00316 µM) 97.3% [middle of 4 runs]; (compound 0.0316 µM) 17.7% [middle of 4 runs]; (compound 0.1 µM) 9.63% [middle of 4 runs]; (compound 0.316 µM) 9.78% [middle of 4 runs]; (compound 1 µM) 12.4% [middle of 4 runs]. The IC50 (curve of compound) was 16.7 nM [middle of 4 runs].

Consider `O=C(c1ccc(F)c(F)c1Nc1ccc(I)cc1F)N1CC(O)([C@@H]2CCCCN2)C1`, for which the viability, T/C by setting is: (compound 0.00316 µM) 91.9% [middle of 4 runs]; (compound 0.01 µM) 78.6% [middle of 4 runs]; (compound 0.0316 µM) 71% [middle of 4 runs]; (compound 0.1 µM) 53.7% [middle of 4 runs]; (compound 0.316 µM) 51.2% [middle of 4 runs]; (compound 1 µM) 39.7% [middle of 4 runs]. Under “curve of compound”, the IC50 was 206 nM [middle of 4 runs].
